Laboratory results reported in paper PMC11955521, “A GTP-driven central carbon metabolism in the cellulolytic bacterium Ruminiclostridium cellulolyticum” (Communications Biology, 2025).

Molecular target: T1, Pyruvate kinase (PK) (Ruminiclostridium cellulolyticum, UniProt B8I6Q5)
T1 construct: gene Ccel_2569; full-length, C-terminal His tag (pET28a), E. coli BL21(DE3), Ni-NTA and anion exchange
T1 sequence (B8I6Q5 1-580): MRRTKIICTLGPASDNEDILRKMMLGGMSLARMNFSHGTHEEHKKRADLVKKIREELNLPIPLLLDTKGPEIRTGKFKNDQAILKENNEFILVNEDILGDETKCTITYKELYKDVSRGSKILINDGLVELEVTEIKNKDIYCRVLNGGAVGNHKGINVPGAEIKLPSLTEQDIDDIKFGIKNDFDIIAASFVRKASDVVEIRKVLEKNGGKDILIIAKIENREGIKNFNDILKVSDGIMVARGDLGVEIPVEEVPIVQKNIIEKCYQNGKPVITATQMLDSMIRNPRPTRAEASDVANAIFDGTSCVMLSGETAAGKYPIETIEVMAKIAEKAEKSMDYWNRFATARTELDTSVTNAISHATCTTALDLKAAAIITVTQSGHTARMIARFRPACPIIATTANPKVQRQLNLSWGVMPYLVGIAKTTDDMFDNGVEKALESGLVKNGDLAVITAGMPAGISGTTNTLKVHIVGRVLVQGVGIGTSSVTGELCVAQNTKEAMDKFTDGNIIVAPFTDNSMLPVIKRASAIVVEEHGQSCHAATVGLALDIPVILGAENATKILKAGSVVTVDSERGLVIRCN
Assay: activation of PK, HPLC-RI of pyruvate
Format: biochemical
Conditions: allosteric activator only with GDP as co-substrate; FBP 0.5, 3, 10 mM; 20 mM MgCl2, 30 mM KCl, pH 7.0, 37 °C

O=P(O)(O)OC[C@H]1OC(O)(COP(=O)(O)O)[C@@H](O)[C@@H]1O (stereo partly shown) [FBP]
activation of PK, HPLC-RI of pyruvate: FBP was found to act as a potent allosteric activator only when GDP is the co-substrate
